Consider 15 molecules from patent publication US6608086B2, “Dihydropyridines and new uses thereof” (Synaptic Pharmaceutical Corporation, priority 1993, dated 2003).

The target in one experiment is T1, α2C receptor (Homo sapiens, UniProt P18825).
T1 construct: host or cells: LM(tk-) cells, line L-α2C
T1 sequence (P18825 1-462): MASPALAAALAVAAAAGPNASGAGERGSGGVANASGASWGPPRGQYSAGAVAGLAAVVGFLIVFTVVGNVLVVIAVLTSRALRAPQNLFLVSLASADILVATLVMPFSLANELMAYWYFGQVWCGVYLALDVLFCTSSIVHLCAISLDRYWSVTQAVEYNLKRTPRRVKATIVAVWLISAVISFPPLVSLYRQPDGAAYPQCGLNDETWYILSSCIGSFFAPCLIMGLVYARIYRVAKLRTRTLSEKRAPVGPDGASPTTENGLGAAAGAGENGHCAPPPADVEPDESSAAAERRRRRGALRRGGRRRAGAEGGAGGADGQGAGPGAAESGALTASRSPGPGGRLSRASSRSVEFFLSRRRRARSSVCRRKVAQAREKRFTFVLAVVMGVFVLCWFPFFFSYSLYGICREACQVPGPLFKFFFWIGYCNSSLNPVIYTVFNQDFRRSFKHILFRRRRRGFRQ
Description: Competition binding, [3H]rauwolscine, human α2C receptor. The conditions noted are these: [3H]rauwolscine, LM(tk-) cell line L-α2C, SEM and n in lines below; for Ki: read-out: pKi alpha-2 2c (converted). An outline of the steps:
(§1)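 Lysates of LM(tk−) cells stably expressing human α2A, α2B or α2C receptors in 25 mM glycylglycine pH 7.6. Equilibrium competition against 0.5 nM [3H]rauwolscine, with 10 μM phentolamine defining nonspecific binding. Bound ligand separated by GF/B filtration.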

Another experiment deals with T2, α2B receptor (Homo sapiens, UniProt P18089).
T2 construct: host or cells: LM(tk-) cells, line L-NGC-α2B
T2 sequence (P18089 1-450): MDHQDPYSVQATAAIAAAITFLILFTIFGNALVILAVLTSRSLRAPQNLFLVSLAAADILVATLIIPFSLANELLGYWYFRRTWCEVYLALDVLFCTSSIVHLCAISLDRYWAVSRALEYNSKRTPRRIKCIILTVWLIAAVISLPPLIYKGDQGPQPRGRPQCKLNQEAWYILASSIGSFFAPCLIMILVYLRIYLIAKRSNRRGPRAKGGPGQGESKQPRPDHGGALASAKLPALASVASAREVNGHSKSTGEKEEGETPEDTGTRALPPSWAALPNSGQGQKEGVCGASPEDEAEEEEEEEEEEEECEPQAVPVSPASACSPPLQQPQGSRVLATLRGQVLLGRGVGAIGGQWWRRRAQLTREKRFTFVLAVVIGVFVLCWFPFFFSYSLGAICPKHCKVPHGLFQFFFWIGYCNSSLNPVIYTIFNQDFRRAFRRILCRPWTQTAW
In words: Competition binding, [3H]rauwolscine, human α2B receptor. The settings on record: [3H]rauwolscine, LM(tk-) cell line L-NGC-α2B, SEM and n in lines below; for Ki: read-out: pKi alpha-2 2b (converted). An outline of the steps: as §1

The target in experiment [1] is T3, α1C Human Adrenergic Receptor (Homo sapiens, UniProt P35348).
T3 construct: The entire coding region of α1C (1401 bp); expressed in transfected cells
T3 sequence (P35348 1-466): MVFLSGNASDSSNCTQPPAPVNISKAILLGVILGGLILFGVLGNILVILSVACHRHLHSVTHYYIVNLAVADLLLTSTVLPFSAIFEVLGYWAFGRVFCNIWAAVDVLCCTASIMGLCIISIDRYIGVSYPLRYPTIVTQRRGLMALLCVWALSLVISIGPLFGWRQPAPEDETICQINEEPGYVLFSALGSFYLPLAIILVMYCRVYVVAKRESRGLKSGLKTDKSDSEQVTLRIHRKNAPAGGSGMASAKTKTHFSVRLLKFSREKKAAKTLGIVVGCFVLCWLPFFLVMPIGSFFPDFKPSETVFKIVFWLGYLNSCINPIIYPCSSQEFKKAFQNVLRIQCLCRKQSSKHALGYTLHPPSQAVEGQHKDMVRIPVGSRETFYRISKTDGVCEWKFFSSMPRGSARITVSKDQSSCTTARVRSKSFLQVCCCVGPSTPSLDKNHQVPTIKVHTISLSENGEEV
In words: Radioligand binding, [3H]prazosin, cloned human α1C adrenergic receptor. The settings on record: cloned human receptor in LM(tk-) cell membranes, SEM and n in lines below; for Ki: read-out: pKi alpha-1 1c (converted). In outline: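 Antagonist radioligand [3H]prazosin at 0.5 nM labels human α1C receptors in stably transfected LM(tk−) cell membranes over 20 min at 37° C. Phentolamine (10 μM) gives nonspecific binding.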

SMILES strings stand for the structures. Where a name gives a salt, the structure may show the parent alone.

Regarding `COC(=O)C1=C(C)NC(C)=C(C(=O)NCCCN2CCCCC2)C1c1ccc([N+](=O)[O-])cc1` (stereo not drawn) [Example 51, 1,4-Dihydro-3-methoxycarbonyl-2,6-dimethyl-4-(4-nitrophenyl)-5-{N-[3-(piperidin-1-yl)propyl]}carboxamidopyridine hydrochloride etherate], the Ki on α2C receptor was 251 nM; on α2B receptor it was 513 nM; in experiment [1] it was 479 nM.

Consider `COC(=O)C1=C(C)NC(C)=C(C(=O)NCCCCN2CCC(c3ccccc3)(c3ccccc3)CC2)C1c1ccc([N+](=O)[O-])cc1.Cl.O` (stereo not drawn) [Example 53, 1,4-Dihydro-3-methoxycarbonyl-2,6-dimethyl-4-(4-nitrophenyl)-5-{N-[4-(4,4-diphenylpiperidin-1-yl)butyl]}carboxamidopyridine hydrochloride hydrate], for which the “pKi alpha-2 2c” value at α2C receptor stood at 6.67. In addition, at α2B receptor, the “pKi alpha-2 2b” value came out at 6.34. In addition, the “pKi alpha-1 1c” value in experiment [1] was 7.83.

As for `COC(=O)C1=C(C)NC(C)=C(C(=O)NCCCN2CCc3cc(OC)c(OC)cc3C2)C1c1ccc([N+](=O)[O-])cc1` (stereo not drawn) [Example 57, 1,4-Dihydro-3-methoxycarbonyl-5-{N-[3-(1,2,3,4-tetrahydro-6,7-dimethoxyisoquinolin-2-yl)propyl]}carboxamido-2,6-dimethyl-4-(4-nitrophenyl)pyridine hydrochloride hydrate], the Ki at α2C receptor is 158 nM; at α2B receptor, 1860 nM; in experiment [1], 603 nM.

Turning to `COc1cc2c(cc1OC)CN(CCCNC(=O)C1=C(C)NC(C)=C(C(N)=O)C1c1ccc([N+](=O)[O-])cc1)CC2` (stereo not drawn) [Example 58, 5-Carboxamido-1,4-dihydro-3-{N-[3-(1,2,3,4-tetrahydro-6,7-dimethoxyisoquinolin-2-yl)propyl]}carboxamido-2,6-dimethyl-4-(4-nitrophenyl)pyridine hydrochloride], the Ki at α2C receptor was 50.1 nM; on α2B receptor, 1450 nM; in experiment [1], 331 nM.

For the molecule `CC1=C(C(N)=O)C(c2ccc([N+](=O)[O-])cc2)C(C(=O)NCCCN2CCC(c3ccccc3)CC2)=C(C)N1` (stereo not drawn) [Example 60, 5-Carboxamido-1,4-dihydro-2,6-dimethyl-4-(4-nitrophenyl)-3-{N-[3-(4-phenylpiperidin-1-yl)propyl]}carboxamidopyridine], the Ki at α2C receptor was 67.6 nM; on α2B receptor, 69.2 nM; in experiment [1], 2.75 nM.

Turning to `CC1=C(C(N)=O)C(c2cccc([N+](=O)[O-])c2)C(C(=O)NCCCN2CCC(c3ccccc3)CC2)=C(C)N1` (stereo not drawn) [Example 62], the Ki on α2C receptor was 49 nM; on α2B receptor, 57.5 nM; in experiment [1] it was 2.63 nM.

With `CC1=C(C(=O)NCCCN2CCC(c3ccccc3)CC2)C(c2ccc([N+](=O)[O-])cc2)c2c([nH]c(=O)[nH]c2=O)N1` (stereo not drawn) [Example 63, 1,4-Dihydro-6-methyl-4-(4-nitrophenyl)-5-{N-[3-(4-phenylpiperidin-1-yl)propyl]}carboxamido-[2,3, d]uracilylpyridine], the Ki is 170 nM at α2C receptor, 132 nM at α2B receptor and 38.9 nM in experiment [1].

On to `COC(=O)C1=C(C)NC(c2ccoc2)=C(C(=O)NCCCN2CCC(c3ccccc3)CC2)C1c1ccc([N+](=O)[O-])cc1` (stereo not drawn) [Example 65, 2-(Furan-3-yl)-1,4-dihydro-5-methoxycarbonyl-6-methyl-4-(4-nitrophenyl)-5-{N-[3-(4-phenylpiperidin-1-yl)propyl]}carboxamidopyridine hydrochloride hydrate], for which the Ki was 83.2 nM on α2C receptor, 97.7 nM at α2B receptor and 1.05 nM in experiment [1].

Regarding `CC1=C(C(N)=O)C(c2ccc([N+](=O)[O-])cc2)C(C(=O)NC2CCN(Cc3ccccc3)CC2)=C(c2ccoc2)N1.Cl.O` (stereo not drawn) [Example 66], at α2C receptor, the “pKi alpha-2 2c” value was determined as 6.24. For the same molecule, the “pKi alpha-2 2b” value on α2B receptor was 5.35. Moreover, the “pKi alpha-1 1c” value in experiment [1] was 6.59.

Turning to `COc1cc2c(c(OC)c1)CCN(CCCNC(=O)C1=C(c3ccoc3)NC(C)=C(C(N)=O)C1c1ccc([N+](=O)[O-])cc1)C2.Cl.O` (stereo not drawn) [Example 67], at α2C receptor, the “pKi alpha-2 2c” value turned out to be 7.00. Also, the “pKi alpha-2 2b” value on α2B receptor was found to be 5.79. For the same molecule, in experiment [1], the “pKi alpha-1 1c” value is 6.48.

`CCC1=C(C(=O)NCCCN2CCC(c3ccccc3)CC2)C(c2ccc([N+](=O)[O-])cc2)C(C(=O)OC)=C(C)N1` (stereo not drawn) [Example 74, 2-Ethyl-1,4-dihydro-5-methoxycarbonyl-6-methyl-4-(4-nitro)phenyl-3-(N-(3-(4-phenylpiperidin-1-yl)propyl)) carboxamidopyridine hydrochloride hydrate]: the Ki at α2C receptor was 23.4 nM; on α2B receptor, 89.1 nM; in experiment [1] it was 0.501 nM.

Turning to `CCC1=C(C(=O)NC2CCN(Cc3ccccc3)CC2)C(c2ccc([N+](=O)[O-])cc2)C(C(=O)OC)=C(C)N1` (stereo not drawn) [Example 75, 2-Ethyl-1,4-dihydro-5-methoxycarbonyl-6-methyl-4-(4-nitro)phenyl-3-(N-(N-phenylmethyl)piperidin-4-yl)carboxamidopyridine hydrochloride], the figures for the Ki (on α2C receptor; on α2B receptor; in experiment [1]) were 1230 nM, 3090 nM and 794 nM, respectively.

Regarding `CCC1=C(C(=O)NCCCN2CCc3cc(OC)c(OC)cc3C2)C(c2ccc([N+](=O)[O-])cc2)C(C(N)=O)=C(C)N1.Cl.O` (stereo not drawn) [Example 76, 5-Carboxamido-2-ethyl-1,4-dihydro-3-(N-(3-(1,2,3,4-tetrahydro-6,7-dimethoxyisoquinolin-2-yl)propyl)) carboxamido-6-methyl-4-(4-nitro)phenylpyridine hydrochloride hydrate], on α2C receptor, the “pKi alpha-2 2c” value is recorded as 7.70. Further, on α2B receptor, the “pKi alpha-2 2b” value is recorded as 5.64. Also, the “pKi alpha-1 1c” value in experiment [1] is 6.63.

On to `CCC1=C(C(=O)NCCCCN2CCC(c3ccccc3)CC2)C(c2ccc([N+](=O)[O-])cc2)C(C(N)=O)=C(C)N1.Cl.O` (stereo not drawn) [Example 77, 5-Carboxamido-2-ethyl-1,4-dihydro-6-methyl-4-(4-nitro)phenyl-3-(N-(4-(4-phenylpiperidin-1-yl)butyl))carboxamidopyridine hydrochloride hydrate], for which the “pKi alpha-2 2c” value on α2C receptor is listed as 7.42. Also, the “pKi alpha-2 2b” value on α2B receptor was found to be 7.08. Moreover, in experiment [1], the “pKi alpha-1 1c” value is reported as 8.30.

Turning to `COC(=O)C1=C(C)NC(c2ccccc2)=C(C(=O)NCCCN2CCC(c3ccccc3)CC2)C1c1ccc([N+](=O)[O-])cc1.Cl` (stereo not drawn) [Example 79, 1,4-Dihydro-5-methoxycarbonyl-6-methyl-4-(4-nitro)phenyl-2-phenyl-3-(N-(3-(4-phenylpiperidin-1-yl)propyl)) carboxamidopyridine hydrochloride], on α2C receptor, the “pKi alpha-2 2c” value was 7.21. On α2B receptor, the “pKi alpha-2 2b” value stood at 7.28. In experiment [1], the “pKi alpha-1 1c” value is reported as 7.76.
